Test results as given in ChEMBL document CHEMBL3045584, “1-(6-Halonicotinyl)-2-nitromethylene-imidazolidines as Potential New Insecticides” (1992).
Activity calls are given as the source filed them. The calls are words filed in the database; no cut-off is given here.

test system: Nephotettix cincticeps; assay: Insecticidal activity against Nephotettix cincticeps (green rice leafhopper) measured after 5 days; assay type: functional

First: O=[N+]([O-])/C=C1\NCCN1Cc1ccc(Cl)cc1
Second: Cc1ccc(CN2CCN/C2=C\[N+](=O)[O-])cc1
The LC90 of the first is lower: 40 ppm for the first, 200 ppm for the second.

`O=[N+]([O-])/C=C1\NCCN1Cc1ccncc1` and `O=[N+]([O-])/C=C1\NCCN1Cc1cccnc1` are the same in LC90: 8 ppm for the first, 8 ppm for the second.

Compared with `Cc1ccc(CN2CCN/C2=C\[N+](=O)[O-])cn1`, `O=[N+]([O-])/C=C1\NCCN1Cc1ccc(Br)nc1` is lower in LC90: 1.6 ppm for the first, 0.32 ppm for the second.

`O=[N+]([O-])/C=C1\NCCN1Cc1ccc([N+](=O)[O-])cc1` and `COc1ccc(CN2CCN/C2=C\[N+](=O)[O-])cc1` are the same in LC90: 200 ppm for the first, 200 ppm for the second.

Compared with `O=[N+]([O-])/C=C1\NCCN1Cc1cncc(Cl)c1`, `O=[N+]([O-])/C=C1\NCCN1Cc1cccc(Cl)c1` is higher in LC90: 40 ppm for the first, 200 ppm for the second.

Going from `O=[N+]([O-])/C=C1\NCCN1Cc1ccc(C(F)(F)F)nc1` to `O=[N+]([O-])/C=C1\NCCN1Cc1ccc(F)nc1`, the LC90 falls from 8 ppm to 0.32 ppm.

Compared with `O=[N+]([O-])/C=C1\NCCN1Cc1ccc(Cl)cn1`, `O=[N+]([O-])/C=C1\NCCN1Cc1ccc(Cl)nc1` is lower in LC90: 200 ppm for the first, 0.32 ppm for the second.

Compared with `CSc1ccc(CN2CCN/C2=C\[N+](=O)[O-])cn1`, `N#Cc1ccc(CN2CCN/C2=C\[N+](=O)[O-])cn1` is lower in LC90: 1000 ppm for the first, 200 ppm for the second.

`O=[N+]([O-])/C=C1\NCCN1Cc1ccnc(Cl)c1` and `O=[N+]([O-])/C=C1\NCCN1Cc1cccnc1Cl` are the same in LC90: 200 ppm for the first, 200 ppm for the second.

`O=[N+]([O-])/C=C1\NCCN1Cc1ccccc1` and `O=[N+]([O-])/C=C1\NCCN1Cc1ccccn1` are the same in LC90: 200 ppm for the first, 200 ppm for the second.

For `O=[N+]([O-])C=C1NCCN1` [2-(NITROMETHYLENE)IMIDAZOLIDINE], the LC90 was 1000 ppm.

test system: Nephotettix cincticeps; assay: Insecticidal activity against Nephotettix cincticeps (green rice leafhopper) measured at 100 ppm after 5 days; assay type: functional, organism-based

`O=[N+]([O-])/C=C1\NCCN1Cc1ccccc1Cl` was tested, and the LC90 was “inactive”.
